Values quoted from earlier work in US12263175B2, “Optimised dosage of diaminophenothiazines in populations” (WisTa Laboratories Ltd., priority 2018, dated 2025).

Tests used:
[1] = tested on: huntingtin derivative containing a polyglutamine stretch of 102 residues; conditions: zebrafish; tested at 0, 10 and 100 μM; cited from earlier work
[2] = tested on: TDP-43 aggregates in SH-SY5Y cells; conditions: 0.05 μM MT; cited from earlier work
[3] = phase 2 study, cited from earlier work

CN(C)c1ccc2nc3ccc(=[N+](C)C)cc-3sc2c1 [MT, methylthioninium]
Formation of aggregates of huntingtin derivative (polyglutamine stretch of 102 residues) [1]: prevented the formation of such aggregates in zebrafish in a dose-dependent manner | Reduction of the number of TDP-43 aggregates [2]: 50%

CN(C)c1ccc2nc3ccc(N(C)C)cc3[s+]c2c1.[Cl-] [MTC, methylthioninium chloride]
Efficacy at higher dose ([3]; 218 mg/day): limited efficacy | Minimum safe and effective dose [3]: 138 mg/day
